Usually CC50 stands for the concentration that lowers cell viability or growth by half. What is called IC50 is the midpoint of a concentration-inhibition curve.

The values that follow come from patent publication US9422321B2, “Pyrimidine nucleoside derivatives, synthesis methods and uses thereof for preparing anti-tumor and anti-virus medicaments” (High & New Technology Research Center, Henan Academy of …, priority 2010, dated 2016).

The test system of one data set is VSVG/HIV-luc (NL4-3). Put plainly: microbe, parasite or virus in culture. The class given is cell-based, HIV-1. The settings on record: Human immunodeficiency virus 1, NL43, HEK-293T; for EC50: 48 h, read-out: EC50 (μM) VSVG/HIV-luc (NL4-3).
The nature of data set [1]: MTS test of effects of the compound on cell survival. The class given is cell-based. The settings on record: human, 293T cells. On the procedure:
Then, 20 μL freshly prepared mixture of MTS/PMS was added to each well and after 4 h incubation in the incubator at 37° C. with 5% CO2, the color was developed. The light absorption (OD) of each well at wavelengths 490 nm and 650 nm (background) was detected on an enzyme linked immuno analyzer, and the survival rate of cells was calculated.
Background: Tetrazolium assays rely on reduction of a dye to a coloured formazan, in cell work by metabolically active cells.

A further data set concerns HBsAg. Put plainly: In vitro inhibition of HBV: HBsAg in HepG2.2.15 cells by ELISA. The class given is cell-based. The settings on record: Hepatitis B virus, HepG2.2.15, read-out: IC50 (μM) (HBsAg). On the procedure: (§1) A tube of frozen HepG2.2.15 cells taken from a liquid nitrogen tank was quickly placed into a water bath at 42° C. and shaken to thaw. DMEM complete medium (fetal bovine serum 10%, G418 380 μg/mL, Penicillin 100 U/ml, Streptomycin 100 U/ml) was used for cell culturing at conditions of 37° C. and 5% CO2. The number of cell passage in normal growing cells was once per 2-3 days.
(§2) The effect of a compound on HBV surface antigen s and antigen e in the cell culture was detected using a screening concentration lower than the half toxic concentration of the compound. HepG2.2.15 cells in logarithmic growth phase were selected and digested with trypsin into single cell suspension, and were seeded to a 24-well plate at a concentration of 2×10^4/mL, 1 mL per well. Media of different medicament concentrations were added, three wells for each concentration, and cells added with complete medium were set as normal control. Cell supernatants and cells at day 3, day 6 and day 9 were collected and kept under −20° C. The intracellular and extracellular expressions of e antigen and surface antigen at day 3, day 6 and day 9 were determined by ELISA.
(§3) 2.4 Effect of the Compound on HBeAg and HBsAg in HepG2.2.15 Cell Supernatant Detected by ELISA
(§4) The instructions of the kit were followed;
(§5) Measurement: OD value of each well was read from microplate reader using dual wavelength 450/630 nm.
(§6) Result determination: The Cutoff value was first calculated according to equation: COV=average OD of negative control×2.1. Then, if a sample had OD≧COV, the result was determined as positive, or if a sample had OD≦COV, the result was determined as negative.
In general terms: An ELISA detects its analyte on a solid surface through an enzyme-linked reagent.

The test system of another data set is HBeAg. Nature of the data set: In vitro inhibition of HBV: HBeAg in HepG2.2.15 cells by ELISA. The class given is cell-based. The settings on record: Hepatitis B virus, HepG2.2.15, read-out: IC50 (μM) (HBeAg). The procedure:
as §1, §2, §3, §4, §5, §6

Data set [2] can be described thus: MTT test of cytotoxicity on HepG2.2.15 cells. The class given is cell-based. The settings on record: human, read-out: CC50 (μM) (HepG2. 2. 15). On the procedure: as §1
Cytotoxicity of the compound on HepG2.2.15 cells was tested with the MTT colorimetric assay established by Mosmann. After continuous incubation for 72 h, 10 μL MTT was added to each well. Four hours later, the supernatant was discarded and 200 μL DMSO was added to each well. The OD value in each well was read using a microplate reader (measurement wavelength 490 nm, reference wavelength 630 nm). The result was recorded and the percentage inhibition of HepG2.2.15 cells by each compound was calculated:
The half toxic concentration (TC50) of the medicament on cells was calculated according to the percentage inhibition of the cell by the medicament.

Data set [3] has as its system human lymphoma Raji cells. Put plainly: Inhibition of cell growth by MTT reduction. It is filed as cell-based. The settings on record: read-out: Inhibitory activity, IC50. On the procedure:
Cell culturing: Raji cells in RPMI1640 culture solution containing 10% fetal calf serum were incubated in an incubator at 37° C. with 5% CO2 for 2-3 days. Cells in logarithmic growth phase were used for the experiment.
Cells in logarithmic growth phase were taken and after the cell density was adjusted to 5×10^4 cells/mL, they were seeded to three 96-well plates separately, 100 μL per well. The culture solution was replaced after 24 h cell culturing. […] The blank group (for zeroing) was only added with RPMI1640 culture solution containing 10% fetal calf serum and no cell was added. The control group was added with an equal volume of RPMI1640 culture solution containing 10% fetal calf serum. Each group had 5 replicates. After cells were incubated for 24 h, 48 h and 72 h separately, 20 μL MTT solution (5 mg/mL) was added to each well followed by a 4 h incubation. The supernatant was removed by sucking it out and discarded. 150 μL DMSO was added per well, vortexed about 5 min to mix evenly. After the crystal was completely dissolved, the absorption (A) value at 570 nm of each well was tested within 20 min on enzyme-linked immuno analyzer. The experiment was repeated 3 times and the average was taken to calculate the inhibition rate of cell growth by the following equation. Inhibition rate of cell growth=(1−average A value of experimental group/average A value of control group)×100%

Another data set relates to HCV-RNA. Put plainly: In vitro anti-HCV activity, quantitative determination of HCV-RNA. The settings on record: for levels of HCV-RNA: control 0 μg/mL: Exp 1 5.3 × 10^2, Exp 2 4.0 × 10^2. The class given is cell-based, hepatitis C virus (HCV). On the procedure: HCV replication cells (Avva.5) were cultivated in Dulbecco's modified Eagle medium containing 10% fetal calf serum and 1 mg/mL G418. 293-Sip-L cells were cultivated in Dulbecco's modified Eagle medium containing 10% fetal calf serum, 250 μg/mL G418 and 150 μg/mL hygromycin B.
Cells in a Φ60 mm Petri dish were incubated in positive medium containing 100 μL HCV for 12 h, then in fresh medium free of HCV that was replaced every day. When being tested for HCV-RNA seven days after the infection, cells were trypsinized and washed with Dulbecco's modified Eagle medium twice through a centrifugation method. The upper layer from the second wash (as a control) and the washed cells were collected in pairs and used for RNA extraction and RT-PCR test. The β-actin mRNA was determined simultaneously as a control.
The quantitative determination of HCV-RNA was performed using automatic PCR enzyme-linked immunoassay (version 2.0, Roche Diagnostics, Branchburg, N.J.).
The levels of HCV-RNA were determined using automatic PCR enzyme-linked immunoassay.

The structures appear in SMILES notation. Several values for one entry are separate records, joined by “and”; a condition that tells them apart may be missing. Equal entries are not always repeated.

As to `[N-]=[N+]=N[C@]1(CO)O[C@@H](n2ccc(N[C@@H](Cc3cc4ccccc4[nH]3)C(=O)O)nc2=O)C(F)C1O` (stereo partly shown) [Compound 8d], the EC50 in the data set on VSVG/HIV-luc (NL4-3) is 0.7 ± 0.1 µM. The same molecule showed a CC50 at 44 h in data set [1] of at least 25 µM. Further, the IC50 amounted to 0.03 µM with HBsAg and 0.36 µM with HBeAg. Besides, the CC50 at 72 h in data set [2] is at least 25 µM.
Regarding `COC(=O)C[C@H](Nc1ccn([C@@H]2O[C@@](CO)(N=[N+]=[N-])C(O)C2F)c(=O)n1)C(=O)OC` (stereo partly shown) [Compound 8e], in the data set on VSVG/HIV-luc (NL4-3), the EC50 worked out at 12 ± 2.8 µM. This molecule also had a CC50 at 44 h in data set [1] of at least 25 µM. Besides, the IC50 was determined as 20.5 µM in the data set on HBsAg and 12.8 µM with HBeAg. Further, the CC50 at 72 h in data set [2] was 231 µM.
As for `[N-]=[N+]=N[C@]1(CO)O[C@@H](n2ccc(NCC(N)=O)nc2=O)C(F)C1O` (stereo partly shown) [Compound 7j], the EC50 in the data set with VSVG/HIV-luc (NL4-3) worked out at 10 ± 7 µM. The half-maximal cytotoxic concentration (CC50) at 44 h in data set [1] was at least 25 µM. The IC50 in the data set on HBeAg was 6.16 µM. Also, in data set [2], the half-maximal cytotoxic concentration (CC50) at 72 h came out at 239 µM.
Regarding `CNc1ccn([C@@H]2O[C@@](CO)(N=[N+]=[N-])C(O)C2F)c(=O)n1` (stereo partly shown) [Compound 5-28], the EC50 in the data set with VSVG/HIV-luc (NL4-3) worked out at 6.7 ± 4.7 µM. Further, in data set [1], the half-maximal cytotoxic concentration (CC50) at 44 h is at least 25 µM. In addition, the results for the concentration for half-maximal inhibition (IC50) with HBsAg and with HBeAg were 6.26 µM and 14.3 µM, respectively. Moreover, the CC50 at 72 h in data set [2] was above 250 µM.
The like results for `COC(=O)C(C)Nc1ccn([C@@H]2O[C@@](CO)(N=[N+]=[N-])C(O)C2F)c(=O)n1` (stereo partly shown) [Compound 7m] were, in that order, 10 ± 6.6 µM, at least 25 µM, 1.89 µM, 21.2 µM and 311 µM.
Turning to `CN(C)c1ccn([C@@H]2O[C@@](CO)(N=[N+]=[N-])C(O)C2F)c(=O)n1` (stereo partly shown) [Compound 5-21], the EC50 in the data set on VSVG/HIV-luc (NL4-3) came to 13 ± 6 µM. Also, the CC50 at 44 h in data set [1] was at least 25 µM. The half-inhibitory concentration (IC50) in the data set with HBeAg was found to be 15.5 µM. The half-maximal cytotoxic concentration (CC50) at 72 h in data set [2] was above 250 µM.
`[N-]=[N+]=N[C@]1(CO)O[C@@H](n2ccc(N(CCO)CCO)nc2=O)C(F)C1O` (stereo partly shown) [Compound 5-19]: in the data set on VSVG/HIV-luc (NL4-3), the EC50 was 0.8 ± 0.7 µM. Moreover, the CC50 at 44 h in data set [1] was at least 25 µM. Further, the results for the half-inhibitory concentration (IC50) (in the data set on HBsAg; in data set [3]) were 0.009 µM and 1.6 µM, respectively. In addition, in data set [2], the CC50 at 72 h is above 1250 µM.
As for `[N-]=[N+]=N[C@]1(CO)O[C@@H](n2ccc(NCCN)nc2=O)C(F)C1O` (stereo partly shown) [Compound 5-02], the EC50 in the data set on VSVG/HIV-luc (NL4-3) stood at 0.093 ± 0.067 µM. In addition, the CC50 at 44 h in data set [1] was at least 25 µM. In addition, the values for the IC50 (with HBsAg; in data set [3]) were 8.05 µM and 45 µM, respectively. Moreover, the CC50 at 72 h in data set [2] is at least 25 µM. Besides, the “levels of HCV-RNA” value with HCV-RNA (0.06 μg/mL in the culture) is 4.5 × 10^2 and 4.2 × 10^2; with HCV-RNA (0.6 μg/mL in the culture), 0.90 × 10^2 and 0.70 × 10^2; in the data set with HCV-RNA (6 μg/mL in the culture), 1.0 × 10^2 and 0.80 × 10^2. Further, the “inhibitory effect on HCV” value in the data set on HCV-RNA (concentrations 6, 0.6 and 0.06 μg/mL) is “exhibited inhibitory effect”.
On to `[N-]=[N+]=N[C@]1(CO)O[C@@H](n2ccc(NO)nc2=O)C(F)C1O` (stereo partly shown) [Compound 5-17], for which the EC50 with VSVG/HIV-luc (NL4-3) stood at 0.7 ± 0.2 µM. In addition, the CC50 at 44 h in data set [1] was at least 25 µM. For the same molecule, the IC50 in the data set on HBsAg was determined as 0.07 µM; in the data set on HBeAg, 0.11 µM. For the same molecule, the CC50 at 72 h in data set [2] amounted to 951 µM.
For the molecule `COC(=O)[C@@H](Cc1cc2ccccc2[nH]1)Nc1ccn([C@@H]2O[C@@](CO)(N=[N+]=[N-])C(O)C2F)c(=O)n1` (stereo partly shown) [Compound 7c], the EC50 with VSVG/HIV-luc (NL4-3) is 0.5 µM. In addition, the inhibition at 10 µM in the data set on VSVG/HIV-luc (NL4-3) (read-out: Inhibitory activity at 10 μM) worked out at 38.8 ± 3.3%. In data set [1], this molecule showed a 50% cytotoxic concentration (CC50) at 44 h of at least 25 µM. The half-maximal inhibitory concentration (IC50) is 0.2 µM in the data set on HBsAg and 0.32 µM in the data set on HBeAg. The cytotoxic concentration (CC50) at 72 h in data set [2] is at least 280 µM.
For `COC(=O)CC[C@H](Nc1ccn([C@@H]2O[C@@](CO)(N=[N+]=[N-])C(O)C2F)c(=O)n1)C(=O)OC` (stereo partly shown) [Compound 7b], the EC50 in the data set on VSVG/HIV-luc (NL4-3) came to 0.7 ± 0.1 µM. The molecule further returned a cytotoxic concentration (CC50) at 44 h in data set [1] of at least 25 µM. For the same molecule, the values for the IC50 (with HBsAg; with HBeAg; in data set [3]) were 0.02 µM, 6.16 µM and 28 µM, respectively. The cytotoxic concentration (CC50) at 72 h in data set [2] was above 1250 µM.
Consider `[N-]=[N+]=N[C@]1(CO)O[C@@H](n2ccc(NCC(=O)O)nc2=O)C(F)C1O` (stereo partly shown) [Compound 8a], for which the EC50 with VSVG/HIV-luc (NL4-3) turned out to be 5.1 ± 1.1 µM. Besides, the CC50 at 44 h in data set [1] was at least 25 µM. The values for the half-inhibitory concentration (IC50) in the data set with HBsAg and in the data set with HBeAg were 13.8 µM and 16.7 µM, respectively. In data set [2], the 50% cytotoxic concentration (CC50) at 72 h was above 250 µM.
